The record followed here is patent US8541444B2, “Triazolopyridine 11-beta hydroxysteroid dehydrogenase type I inhibitors” (Bristol-Myers Squibb Company, priority 2007, dated 2013).

pIC50: −log10 of the molar value.

By inhibition is commonly meant the share of the control response that was lost under treatment. Lower therefore signals a weak effect. Broadly, the pIC50 is −log10 of the IC50, conventionally taken in molar units.

T2 sequence (P28845 whole entry): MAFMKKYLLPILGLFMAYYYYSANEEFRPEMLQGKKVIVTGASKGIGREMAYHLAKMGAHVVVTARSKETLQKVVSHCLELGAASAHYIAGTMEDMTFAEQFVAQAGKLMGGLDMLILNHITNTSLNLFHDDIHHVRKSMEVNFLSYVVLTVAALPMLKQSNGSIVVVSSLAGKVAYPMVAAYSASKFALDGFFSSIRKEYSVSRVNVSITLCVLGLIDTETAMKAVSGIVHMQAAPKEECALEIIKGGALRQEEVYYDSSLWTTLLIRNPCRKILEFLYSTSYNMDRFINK
T1 sequence (P50172 whole entry): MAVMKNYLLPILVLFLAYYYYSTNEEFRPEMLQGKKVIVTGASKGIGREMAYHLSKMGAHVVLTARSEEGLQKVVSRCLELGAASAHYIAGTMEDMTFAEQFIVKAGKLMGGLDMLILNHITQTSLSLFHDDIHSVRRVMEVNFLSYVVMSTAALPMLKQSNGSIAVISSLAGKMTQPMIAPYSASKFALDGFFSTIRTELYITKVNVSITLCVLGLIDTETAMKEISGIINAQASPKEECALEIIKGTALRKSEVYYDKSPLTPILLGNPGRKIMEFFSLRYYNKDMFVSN

The first data set has as its target T1, 11beta-HSD1 (Mus musculus, UniProt P50172).
T1 construct: from tissue; host or cells: whole animal: diet induced obese (DIO) mice, Jackson Laboratory
The data set is described as follows: In vivo inhibition of 11beta-HSD1: DHC to corticosterone conversion in DIO mice. The following applies: 30 mpk oral, plasma corticosterone AUC after DHC 10 mg/kg given 60 minutes post compound. The procedure: The in vivo inhibition of […] 11beta-HSD1 was determined as follows.
Studies were conducted utilizing diet induced obese (DIO) mice obtained from Jackson Laboratory (ME, USA). These mice were fed a 60% fat diet (Research Diets D12492) soon after weaning and kept on this diet for 24 weeks. These mice were individually housed. […]. The animals continued on this diet and were utilized for experimentation at 30 to 32 weeks of age, at which time these mice weighed 45 to 55 grams.
The basic model of 11-dehydrocorticosterone (DHC) administration to mice to produce corticosterone has been reported in the literature for clinical and preclinical evaluation of the activity of 11β-HSD. […] Plasma was separated and collected and immediately frozen at −20° C. until corticosterone analysis could be assessed.
Plasma Corticosterone was measured using an EIA (IDS AC-14F1). Samples were measured at (1:2) for the −30(or −60 minute) and 0 time point and (1:10) for the 30, 60 and 120 minutes time points. AUC was calculated using Graphpad and the zero timepoint was used as the baseline. One way ANOVA was calculated using Sigmastat. […]
The vehicle utilized for the suspension of the compounds was 0.5% methocel; 0.1% tween 80 in water. […] Compounds were administered in 7.5 ml/kg volumes at final dosages of 0.1 to 300 mg/kg depending on the study and compound evaluated.
`CC(C)(O)c1cccn2c(C3(c4ccc(Cl)cc4)CC3)nnc12` [Example 1, 2-(3-(1-(4-Chlorophenyl)cyclopropyl)-[1,2,4]triazolo[4,3-a]pyridin-8-yl) propan-2-ol] yielded an inhibition at 30 mg/kg of 53%. Still for that read-out and setting: under `CC(C)(O)c1cccn2c(C3(c4ccc(Cl)cc4)CCC3)nnc12` [Example 11] stands 69%.

System in the next data set: not listed separately
The data set is described as follows: Moisture sorption study. The class given is physicochemical. Conditions: Form N-1 of the HCl salt; range from about 25 to about 75% RH at 25° C. The procedure: Moisture sorption isotherms were collected in a VTI SGA-100 Symmetric Vapor Analyzer using approximately 10 mg of sample. The sample was dried at 60° C. until the loss rate of 0.0005 wt %/min was obtained for 10 minutes. The sample was tested at 25° C. and 3 or 4, 5, 15, 25, 35, 45, 50, 65, 75, 85, and 95% RH. Equilibration at each RH was reached when the rate of 0.0003 wt %/min for 35 minutes was achieved or a maximum of 600 minutes.
Consider `CC(C)(O)c1cccn2c(C3(c4ccc(Cl)cc4)CC3)nnc12.Cl` [Example 1G, 2-(3-(1-(4-Chlorophenyl)cyclopropyl)-[1,2,4]triazolo[4,3-a]pyridin-8-yl)propan-2-ol HCl Salt], for which the “hygroscopicity (moisture sorption isotherm)” value is “non-hygroscopic”.

Another data set addresses T2, recombinant human 11beta-HSD1 (Homo sapiens, UniProt P28845).
T2 construct: Full length recombinant human 11β-HSD1 cDNAs and the cDNA encoding human 11β-HSD2 were expressed stably in HEK 293 EBNA cells; made in house; microsome fraction used
The data set can be described thus: 11β-HSD1 SPA enzyme assay (in vitro inhibition of recombinant human 11beta-HSD1). The class given is biochemical. Conditions: human 11β-HSD1 microsomes from HEK 293 EBNA cells, 3H-cortisone 40 nM, 4 hrs room temperature. The procedure: The in vitro inhibition of recombinant human 11beta-HSD1 was determined as follows.
The supernatant was further centrifuged at 105,000×g for […]. The 105,000×g pellet was resuspended in buffer H and centrifuged at 105,000×g for 60 min. […] Aliquots were stored at −80° C. until needed. The protein concentration was measured by the BioRad method using BSA standard.
Compounds were dissolved in DMSO to obtain 10 mM stock concentrations. From the 10 mM stock, the compounds were diluted in DMSO to achieve the concentrations.
11β-HSD1 SPA Enzyme Assay
11β-HSD1 was assayed by Scintillation Proximity assay in a 384-well Perkin Elmer white plate. The dose response of the compounds was determined using 11 half-log dilutions of compound in DMSO in duplicate. To each well, 0.5 μl of compound dilution in DMSO were added. 15 μl of assay buffer (for blanks) or 15 μl of human microsomes in assay buffer were added next and the plates were incubated for 10 min at room temperature. The final microsomal protein concentration was 1.1 μg/assay. Duplicates were in the same plate one row below the other. 10 μl of ^3H-cortisone (final concentration 40 nM) was added to each well and the plate was spun down to mix and bring down the contents to the bottom of the wells. The plates were incubated at room temperature with gentle shaking for 4 hrs. […] Then, 0.5 mg of yttrium silicate SPA beads coupled to anti-cortisol antibody in 20 μl were added to all the wells of plate, which were spun down once more and incubated at room temperature overnight. The plate was read in a TopCount® (1 min/well). Data were uploaded automatically to Tool Set, a Lead Evaluation informatics program for data capture and calculation. Graphs were generated with the Curve Master program.
For the compound `CC(C)(O)c1cccn2c(C3(c4nnn(Cc5ccc(F)cc5)n4)CC3)nnc12` [Example 110], the pIC50 is 6.98. Regarding `CC(C)(O)c1cccn2c(C3(c4nc(-c5ccccc5)c[nH]4)CC3)nnc12` [Example 104], the pIC50 was 6.72.

With `CC(C)(O)c1cccn2c(C3(c4ccc(Cl)cc4F)CC3)nnc12` [Example 54], the pIC50 is 9.15. The same measure, in the same setting: under `CN(C)C(=O)c1ccc(C2(c3nnc4c(C(C)(C)O)cccn34)CC2)cc1` [Example 86] stands 7.46; under `CC(C)(O)c1cccn2c(C3(c4nc(-c5ccc(F)cc5)cs4)CC3)nnc12` [Example 109], 9.22. With `CC(C)(O)c1cccc2c(C3(c4ccc(Cl)cc4)CC3)nnn12` [Example 6, 2-(3-(1-(4-Chlorophenyl)cyclopropyl)-[1,2,3]-triazolo[1,5-a]pyridin-7-yl) propan-2-ol], the pIC50 was 7.70.

Turning to `CC(C)(O)c1cccn2c(C3(C(=O)O)CC3)nnc12` [Example 80], the pIC50 is 5.11. Take `CC(C)(O)c1cccn2c(C3(c4ccc(-c5ccc(F)cc5)cc4)CC3)nnc12` [Example 51]: the pIC50 was 9.40. Same read-out and setting: as for `CC(C)(O)c1cccn2c(C3(c4ccc(Cl)cc4)CC3)nnc12` [Example 1, 2-(3-(1-(4-Chlorophenyl)cyclopropyl)-[1,2,4]triazolo[4,3-a]pyridin-8-yl) propan-2-ol], the figure is 8.64; as for `CC(C)(c1cccn2c(C3(c4ccc(Cl)cc4)CCC3)nnc12)c1nnnn1CCC#N` [Example 59], 5.26; as for `CC(C)(O)c1cccn2c(C3(c4nnn(Cc5ccccc5)n4)CC3)nnc12` [Example 112], 5.55.

As to `Cc1ccc(S(=O)(=O)C2(c3nnc4c(C(C)(C)O)cccn34)CC2)cc1C` [Example 90], the pIC50 was 5.86. In the case of `CC(C)(O)c1cccn2c(C3(c4ccc(Cl)c(Cc5nnn[nH]5)c4)CC3)nnc12` [Example 42], the pIC50 is 7.14.

For the compound `CC(C)(O)c1cccn2c(C3(c4nc(-c5ccc(Cl)cc5)cs4)CC3)nnc12` [Example 111], the pIC50 is 9.30.
